Assay results published in patent EP0211584A1, “Antihypertensive agents” (AMERICAN HOME PRODUCTS CORPORATION, priority 1985, dated 1987).
Read-outs that look alike come from different tables or passages of the source.

Key:
[1] = test system: rabbit aortic smooth muscle; experiment: Ca+2 antagonism: relaxation of KCl-depolarized rabbit aortic smooth muscle strips; details: 20 min; for inhibition at 10 µM: Oryctolagus cuniculus, read-out: P.R. (percent relaxation of aortic tissue)
Procedure: The composition of PSS was as follows (mM): NaCl 112,KCI 5, NaHCO3 25 KH2PO4 1, MgSO4 1.2, CaCl2 2.5, dextrose 10. The lower end of each tissue strip was attached to a fixed post and the upper end to a Statham UC-4 transducer. Changes in force development were recorded on a Beckman Dynograph Polygraphic Recorder.
Following equilibration, the muscles were contracted in a depolarizing solution of PSS in which 100mM KCI was substituted for an equimolar concentration of NaCI. Following attainment of steady- state isometric force (20 min.), the test compound was added to afford a final concentration of 1 x 10^-5M. The inhibitory effect, expressed as percent relaxation, was determined from the mean of two experiments twenty minutes after the addition of the compound being tested.
(§1) The following examples illustrate the preparation of a representative number of compounds of this invention. After each example, the Ca+2 antagonist activity of the compound is presented in terms of percent relaxation of aortic tissue (P.R.) at 10-^5M concentration. […] Inhibition of super- precipitation (Antag. of Actin-Myosin interaction) is expressed as percent inhibition (mean ± standard error of the mean for at least 3 separate experiments) at a compound concentration. In the same manner, inhibition of myosin light chain phosphorylation (Antag. of MLCP) is expressed as a percent inhibition at a compound concentration. Similarly, the antihypertensive activity is reported in terms of millimetres mercury (mmHg) systolic blood pressure (B.P.) reduction at the stated time post 50 mg/kg oral dosing or other dosing as indicated.

[2] = test system: isolated paced intact rabbit atria; experiment: Cardiac depressant (negative inotropic) effect in isolated paced rabbit atria; details: Oryctolagus cuniculus; for IC25: read-out: IC25 (concentration which produces 25% inhibition of isometric force)
Procedure: The potential for detrimental cardiac depressant (negative inotropic) effects of the compounds of this invention was assessed in isolated paced intact rabbit atria. […] Muscles (N=5-9/compound) were stimulated at a frequency of 3Hz with a WPI stimulator for a 60 minute equilibration period. Changes in isometric force were recorded as described for the aortic smooth muscle experiments, supra. […]

[3] = test system: arterial actin-myosin interactions; experiment: Inhibition of superprecipitation (antagonism of actin-myosin interaction), Silver et al.; type: biochemical; details: six minute time-point
Procedure: . The data reported herein was obtained at a six minute time-point rather than the 1.5, 5 and 12 minute time points indicated in the superprecipita- tion assay of the Silver et al paper.
as §1

[4] = target: Ca^+2-calmodulin dependent myosin light chain phosphorylation (Bos taurus, UniProt Q28824); experiment: Inhibition of myosin light chain phosphorylation (MLCP), Silver et al.; type: biochemical; details: read-out: Antag. of MLCP (percent inhibition of myosin light chain phosphorylation)
Procedure: The data reported herein was obtained at a six minute time-point rather than the 1.5, 5 and 12 minute time points indicated in the superprecipita- tion assay of the Silver et al paper.
as §1

[5] = test system: spontaneously hypertensive rats; experiment: Hypotensive effect: systolic blood pressure of spontaneously hypertensive rats; type: in vivo; details: mmHg per method
Procedure: The hypotensive in vivo effect of the compounds of this invention was determined by measuring changes in the systolic blood pressure of spontaneously hypertensive rats with a Decker Caudal Plethysmograph. The compound being tested was administered to a group of 4 rats and their systolic pressure was determined prior to and at 1.5 and 4 hours after compound administration. Initial testing was done by oral administration of the compound. Results (mmHg) are expressed as decreases in systolic blood pressure.
as §1

[6] = compound 1 x 10^-5M, 100mM KCl contraction, 20 minutes after addition, mean of two experiments
[7] = rabbit atria paced at 3Hz, 30°C, cumulative dosing
[8] = dose 50mg/kg oral, at 1.5 hours, 50 mg/kg
[9] = dose 50mg/kg oral, at 4 hours, 50 mg/kg
[10] = dose 50mg/kg oral, at 1.5 hours
[11] = dose 25mg/kg oral, at 1.5 hours

CC1=C(C(=O)OCCOc2ccccc2)C(c2c(F)c(F)c(F)c(F)c2F)C2=C(CNCC2=O)N1 (single isomer, unassigned) [Example 4, (+ )-1,4,5,6,7,8-Hexahydro-2-methyl-5-oxo-4-(pentafluorophenyl)-1,7-naphthyridine-3-carboxylic acid 2-phenoxyethyl ester]
inhibition at 10 µM [1, 6]: 61%
IC25 [2, 7]: 800 nM
Antag. of Actin-Myosin (percent inhibition of superprecipitation) ([3]; 50µM): 38%
Antag. of Actin-Myosin (percent inhibition of superprecipitation) ([3]; 100µM): 71%
inhibition at 50 µM [4]: 37%
inhibition at 100 µM [4]: 67%

CO[C@H](COC(=O)C1=C(C)NC2=C(C(=O)CNC2)C1c1c(F)c(F)c(F)c(F)c1F)c1ccccc1 (single isomer, unassigned) [Example 8 Diastereomer A, 1,4,5,6,7,8-Hexahydro-2-methyl-5-oxo-4-(R or S-pentafluorophenyl)-1,7-naphthyridine-3-carboxylic acid(S)-2-methoxy-2-phenylethyl esters]
inhibition at 10 µM ([1]; 10^-5M, Note: Muscles were pre-treated): 50%
B.P. (systolic blood pressure reduction) [5, 8]: -73 mm
B.P. (systolic blood pressure reduction) [5, 9]: -86 mm
Antag. of Actin-Myosin (percent inhibition of superprecipitation) ([3]; 50µM): 28%
Antag. of Actin-Myosin (percent inhibition of superprecipitation) ([3]; 100µM): 69%
inhibition at 50 µM [4]: 28%
inhibition at 100 µM [4]: 63%

CO[C@H](COC(=O)C1=C(C)NC2=C(C(=O)CNC2)C1c1c(F)c(F)c(F)c(F)c1F)c1ccccc1 (single isomer, unassigned) [Example 8 Diastereomer B, 1,4,5,6,7,8-Hexahydro-2-methyl-5-oxo-4-(R or S-pentafluorophenyl)-1,7-naphthyridine-3-carboxylic acid(S)-2-methoxy-2-phenylethyl esters]
P.R. (percent relaxation of aortic tissue) ([1]; 10^-5M, Note: Muscles were pre-treated, 10 µM): 53%
B.P. (systolic blood pressure reduction) [5, 8]: -28 mm
B.P. (systolic blood pressure reduction) [5, 9]: -67 mm
Antag. of Actin-Myosin (percent inhibition of superprecipitation) ([3]; 50µM): 30%
Antag. of Actin-Myosin (percent inhibition of superprecipitation) ([3]; 100µM): 64%

COC(COC(=O)C1=C(C)NC2=C(C(=O)CNC2)C1c1c(F)c(F)c(F)c(F)c1F)c1ccccc1 (stereo not shown) [Example 5, 1,4,5,6,7,8-Hexahydro-2-methyl-5-oxo-4-(pentafluorophenyl)-1,7-naphthyridine-3-carboxylic acid 2-methoxy-2-phenylethyl ester]
inhibition at 10 µM [1, 6]: 71%
IC25 [2, 7]: 10000 nM
Antag. of Actin-Myosin (percent inhibition of superprecipitation) ([3]; 25µM): 20±5%
Antag. of Actin-Myosin (percent inhibition of superprecipitation) ([3]; 50µM): 50±5%
Antag. of Actin-Myosin (percent inhibition of superprecipitation) ([3]; 100µM): 75±4%
inhibition at 25 µM [4]: 21 ± 3%
inhibition at 50 µM [4]: 48 ± 2%
inhibition at 100 µM [4]: 70 ± 3%

COC(COC(=O)C1=C(C)NC2=C(C(=O)CNC2)C1c1c(F)cccc1Cl)c1ccccc1 (stereo not shown) [Example 9, 4-(2-Chloro-6-fluoroohenyl)-1,4,5,6,7,8-hexahydro-2-methyl-5-oxo-1,7-naphthyridine-3-carboxylic acid 2-methoxy-2-phenylethyl ester]
inhibition at 10 µM [1, 6]: 28%
B.P. (systolic blood pressure reduction) [5, 10]: -37 mm
B.P. (systolic blood pressure reduction) ([5]; dose 50mg/kg oral, at 4 hours): -14 mm
Antag. of Actin-Myosin (percent inhibition of superprecipitation) ([3]; 100µM): 40%
inhibition at 100 µM [4]: 44%

COC(COC(=O)C1=C(C)NC2=C(C(=O)CNC2)C1c1cccc(Cl)c1)c1ccccc1 (stereo not shown) [Example 11, 4-(3-Chloroahenyl)-1,4,5,6,7,8-hexahydro-2-methyl-5-oxo-1,7--naphthyridine-3-carboxylic acid. 2-methoxv-2-phenvlethvl ester]
inhibition at 10 µM [1, 6]: 31%
B.P. (systolic blood pressure reduction) [5, 10]: -29 mm
Antag. of Actin-Myosin (percent inhibition of superprecipitation) ([3]; 100µM): 53%
inhibition at 100 µM [4]: 48%

CC1=C(C(=O)OCCOc2ccccc2)C(c2c(F)ccc(F)c2F)C2=C(CNCC2=O)N1 (stereo not shown) [Example 16, 1,4,5,6,7,8-Hexahydro-2-methyl-5-oxo-4-(2,3,6-trifluorophenyl)-1,7-naphthyridine-3-carboxylic acid 2-phenoxyethyl ester]
inhibition at 10 µM [1, 6]: 63%
B.P. (systolic blood pressure reduction) [5, 11]: -37 mm
Antag. of Actin-Myosin (percent inhibition of superprecipitation) ([3]; 100µM): 34%
inhibition at 100 µM [4]: 28%

CC1=C(C(=O)OCC(C)(C)Oc2ccccc2)C(c2c(F)c(F)c(F)c(F)c2F)C2=C(CNCC2=O)N1 (stereo not shown) [Example 20, 1,4,5,6,7,8-Hexahydro-2-methyl-5-oxo-4-(pentafluorophenyl)-1,7-naphthyridine-3-carboxylic acid 2-methyl-2-phenoxypropyl ester]
inhibition at 10 µM [1, 6]: 51%
B.P. (systolic blood pressure reduction) [5, 11]: -64 mm
Antag. of Actin-Myosin (percent inhibition of superprecipitation) ([3]; 100µM): 67%
inhibition at 100 µM [4]: 62%

CC1=C(C(=O)OCCOc2cccc(Cl)c2Cl)C(c2c(F)c(F)c(F)c(F)c2F)C2=C(CNCC2=O)N1 (stereo not shown) [Example 22, 1,4,5,6,7,8-Hexahydro-2-methyl-5-oxo-4-(pentafluorophenyl)-1,7-naphthyridine-3-carboxylic acid 2-(2,3-dichlorphenoxy)ethyl ester]
inhibition at 10 µM [1, 6]: 61%
B.P. (systolic blood pressure reduction) [5, 11]: -37 mm
B.P. (systolic blood pressure reduction) ([5]; dose 25mg/kg oral, at 4 hours): -52 mm
Antag. of Actin-Myosin (percent inhibition of superprecipitation) ([3]; 10µM): 30±3%
Antag. of Actin-Myosin (percent inhibition of superprecipitation) ([3]; 25µM): 54±3%
Antag. of Actin-Myosin (percent inhibition of superprecipitation) ([3]; 50µM): 75±4%
Antag. of Actin-Myosin (percent inhibition of superprecipitation) ([3]; 100µM): 78±1%
inhibition at 10 µM ([4]; 10µM): 25%
inhibition at 25 µM [4]: 54 ± 2.5%
inhibition at 50 µM [4]: 73 ± 1.5%
inhibition at 100 µM [4]: 74 ± 2%

CC1=C(C(=O)OCCOc2ccccc2)C(c2c(F)ccc(C)c2Cl)C2=C(CNCC2=O)N1 (stereo not shown) [Example 23, 4-(2-chloro-6-fluoro-3-methylphenyl)-1,4,5,6,7,8-hexahydro-2-methyl-5-oxo-1,7-naphthyridine-3-carboxylic acid 2-phenoxyethyl ester]
inhibition at 10 µM [1, 6]: 67%
B.P. (systolic blood pressure reduction) [5, 11]: -22 mm
B.P. (systolic blood pressure reduction) ([5]; dose 25mg/kg oral, at 4 hours): -31 mm
Antag. of Actin-Myosin (percent inhibition of superprecipitation) ([3]; 50µM): 23%
Antag. of Actin-Myosin (percent inhibition of superprecipitation) ([3]; 100µM): 62%
inhibition at 50 µM [4]: 18%
inhibition at 100 µM [4]: 56%

CC1=C(C(=O)OCCOc2ccccc2)C(c2c(F)ccc(Cl)c2Cl)C2=C(CNCC2=O)N1 (stereo not shown) [Example 24, 4-(2,3-Dichloro-6-fluorophenyl)-1,4,5,6,7,8-hexahydro-2-methyl-5-oxo-1,7-naphthyridine-3-carboxylic acid 2-phenoxyethyl ester]
inhibition at 10 µM [1, 6]: 65%
IC25 [2, 7]: 10000 nM
Antag. of Actin-Myosin (percent inhibition of superprecipitation) ([3]; 25µM): 9±2%
Antag. of Actin-Myosin (percent inhibition of superprecipitation) ([3]; 50µM): 54±3%
Antag. of Actin-Myosin (percent inhibition of superprecipitation) ([3]; 100µM): 72±1%
inhibition at 25 µM [4]: 8 ± 2%
inhibition at 50 µM [4]: 50 ± 2%
inhibition at 100 µM [4]: 68 ± 1%

NCCCCCCNS(=O)(=O)c1cccc2c(Cl)cccc12 [Example W-7, reference compound]
inhibition at 10 µM ([2]; read-out: inhibition of isometric force): < 20%

COc1ccc(CCN(C)CCCC(C#N)(c2ccc(OC)c(OC)c2)C(C)C)cc1OC (stereo not shown) [Verapamil, reference compound]
IC25 [2]: 60 nM

COC(=O)C1=C(C)NC(C)=C(C(=O)OC)C1c1ccccc1[N+](=O)[O-] [nifedipine, reference compound]
IC25 [2]: 50 nM

CCOC(=O)C1=C(C)NC(C)=C(C(=O)OC)C1c1cccc([N+](=O)[O-])c1 (stereo not shown) [nitrendipine, reference compound]
IC25 [2, 7]: 350 nM
